Test results published in PubChem BioAssay (NCI).
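Exposure lasted 48 hours, with cells grown in 96-well plates and compounds tested at five concentrations. Here, GI50 denotes the concentration required for 50% inhibition of growth. At the TGI there is no net growth.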

How the values were obtained:
Test in all cases: NCI tumour cell line growth inhibition, 48 h
786-0 renal = system: 786-0 renal
A549 NSCLC = system: A549 NSCLC
ACHN renal = system: ACHN renal
BT-549 breast = system: BT-549 breast
CAKI-1 renal = system: CAKI-1 renal
CCRF-CEM leukemia = system: CCRF-CEM leukemia
COLO 205 colon = system: COLO 205 colon
DU-145 prostate = system: DU-145 prostate
EKVX NSCLC = system: EKVX NSCLC
HCT-15 colon = system: HCT-15 colon
HL-60(TB) leukemia = system: HL-60(TB) leukemia
HOP-92 NSCLC = system: HOP-92 NSCLC
HS 578T breast = system: HS 578T breast
IGROV1 ovarian = system: IGROV1 ovarian
K-562 leukemia = system: K-562 leukemia
KM12 colon = system: KM12 colon
LOX IMVI melanoma = system: LOX IMVI melanoma
M14 melanoma = system: M14 melanoma
MCF7 breast = system: MCF7 breast
MDA-MB-231 breast = system: MDA-MB-231 breast
MDA-MB-435 = system: MDA-MB-435
MOLT-4 leukemia = system: MOLT-4 leukemia
NCI-H226 lung = system: NCI-H226 lung
NCI-H460 lung = system: NCI-H460 lung
NCI-H522 lung = system: NCI-H522 lung
OVCAR-3 ovarian = system: OVCAR-3 ovarian
OVCAR-4 ovarian = system: OVCAR-4 ovarian
OVCAR-5 ovarian = system: OVCAR-5 ovarian
OVCAR-8 ovarian = system: OVCAR-8 ovarian
PC-3 prostate = system: PC-3 prostate
RPMI-8226 leukemia = system: RPMI-8226 leukemia
RXF 393 renal = system: RXF 393 renal
SF-268 CNS = system: SF-268 CNS
SF-295 CNS = system: SF-295 CNS
SF-539 CNS = system: SF-539 CNS
SK-MEL-2 melanoma = system: SK-MEL-2 melanoma
SK-MEL-5 melanoma = system: SK-MEL-5 melanoma
SK-OV-3 ovarian = system: SK-OV-3 ovarian
SN12C renal = system: SN12C renal
SNB-19 CNS = system: SNB-19 CNS
SNB-75 CNS = system: SNB-75 CNS
SR leukemia = system: SR leukemia
SW-620 colon = system: SW-620 colon
TK-10 renal = system: TK-10 renal
U251 CNS = system: U251 CNS
UACC-257 melanoma = system: UACC-257 melanoma
UACC-62 melanoma = system: UACC-62 melanoma
UO-31 renal = system: UO-31 renal

## Cc1[nH][nH]c(=O)c1C=Nc1ccc(-c2nc3ccccc3[nH]2)cc1
786-0 renal
  GI50: 18.9 µM
  TGI: 38.3 µM
A549 NSCLC
  GI50: 42.9 µM
  TGI: > 100 µM
ACHN renal
  GI50: 30.1 µM
  TGI: > 100 µM
BT-549 breast
  GI50: 36.2 µM
  TGI: 97.1 µM
CAKI-1 renal
  GI50: 19.1 µM
  TGI: 51.2 µM
CCRF-CEM leukemia
  GI50: 66 nM
  TGI: > 100 µM
COLO 205 colon
  GI50: 19.5 µM
  TGI: 48.1 µM
DU-145 prostate
  GI50: 34.8 µM
  TGI: > 100 µM
EKVX NSCLC
  GI50: 19.8 µM
  TGI: 51.1 µM
HCT-15 colon
  GI50: 22 µM
  TGI: 55.6 µM
HL-60(TB) leukemia
  GI50: 22.6 µM
  TGI: > 100 µM
HOP-92 NSCLC
  GI50: > 100 µM
  TGI: > 100 µM
HS 578T breast
  GI50: 29 µM
  TGI: 63.9 µM
IGROV1 ovarian
  GI50: 24.6 µM
  TGI: > 100 µM
K-562 leukemia
  GI50: 27.4 µM
  TGI: 87.2 µM
KM12 colon
  GI50: 18.3 µM
  TGI: 89.7 µM
LOX IMVI melanoma
  GI50: 16.8 µM
  TGI: 30.5 µM
M14 melanoma
  GI50: 30.6 µM
  TGI: 50.9 µM
MCF7 breast
  TGI: 612 nM
MDA-MB-231 breast
  GI50: 12.8 µM
  TGI: 33.8 µM
MDA-MB-435
  GI50: 16.8 µM
  TGI: 33.7 µM
MOLT-4 leukemia
  GI50: 52 µM
  TGI: > 100 µM
NCI-H226 lung
  GI50: 33.7 µM
  TGI: > 100 µM
NCI-H460 lung
  GI50: 33.3 µM
  TGI: > 100 µM
NCI-H522 lung
  GI50: 31.1 µM
  TGI: 78.1 µM
OVCAR-3 ovarian
  GI50: 14.9 µM
  TGI: 36 µM
OVCAR-4 ovarian
  GI50: 24.4 µM
  TGI: 76.5 µM
OVCAR-5 ovarian
  GI50: 46 µM
  TGI: > 100 µM
OVCAR-8 ovarian
  GI50: 20.7 µM
  TGI: 54.6 µM
PC-3 prostate
  GI50: 80.8 µM
  TGI: > 100 µM
RPMI-8226 leukemia
  GI50: 38.2 µM
  TGI: > 100 µM
RXF 393 renal
  GI50: 11.1 µM
  TGI: 46.6 µM
SF-268 CNS
  GI50: 14.4 µM
  TGI: 51.1 µM
SF-295 CNS
  GI50: 18.4 µM
  TGI: 42.3 µM
SF-539 CNS
  GI50: 22.2 µM
  TGI: 41.6 µM
SK-MEL-2 melanoma
  GI50: 23.3 µM
  TGI: 48 µM
SK-MEL-5 melanoma
  GI50: 18 µM
  TGI: 36.2 µM
SK-OV-3 ovarian
  GI50: 41.9 µM
  TGI: > 100 µM
SN12C renal
  GI50: 36.7 µM
  TGI: 96.5 µM
SNB-19 CNS
  GI50: 22.6 µM
  TGI: 57.3 µM
SNB-75 CNS
  GI50: 19.6 µM
  TGI: 40.5 µM
SR leukemia
  GI50: 39.7 µM
  TGI: 97.1 µM
SW-620 colon
  GI50: 25.6 µM
  TGI: 55.7 µM
TK-10 renal
  GI50: > 100 µM
  TGI: > 100 µM
U251 CNS
  GI50: 19 µM
  TGI: 44.7 µM
UACC-257 melanoma
  GI50: 19.9 µM
  TGI: 42.1 µM
UACC-62 melanoma
  GI50: 15.5 µM
  TGI: 38 µM
UO-31 renal
  GI50: 31.8 µM
  TGI: > 100 µM
